Data: patent publication US10676436B2, “NLRX1 ligands” (Landos Biopharma, Inc., priority 2018, dated 2020)

Experiments:
Human NLRX1 (NLRX1-WT) = biological target: T1, Human NLRX1 (NLRX1-WT) (Homo sapiens, UniProt Q86UT6); test: Surface plasmon resonance binding to NLRX1-WT
T1 construct: made in house; host or cells: Pichia pastoris
Description: (§1) NLRX1 production and purification. Human NLRX1 (www.uniprot.org; UniProtKB—Q86UT6 (NLRX1 HUMAN)) was cloned into E. coli, amplified and transfected in Pichia pastoris. P. pastoris was plated onto adenine selective media. Stable transfected colonies were selected and grown within YPD broth at 30° C. for 24 hours, 240 RPM shaking. Starter culture was used to inoculate base media (1% yeast extract, 2% peptone, 1% sorbitol, 2% yeast nitrogen base) containing biotin and buffered with potassium phosphate. Inoculated base media was incubated for 48 hours at 30° C., 240 RPM. P. pastoris was then pelleted by centrifugation and resuspended in expression media (1% sorbitol, 2% yeast nitrogen base) containing biotin and buffered with potassium phosphate. Culture was induced daily for protein production through addition of methanol and incubated for a total of 4 days at 28° C., 240 RPM. After incubation, cells were pelleted by centrifugation and lysed by sonication. Recombinant NLRX1 protein was purified by fast protein liquid chromatography (AktaPrime) using immobilized metal affinity chromatography. Fractions of protein were eluted in 1 mL aliquots and evaluated for NLRX1 content. A mutated NLRX1 protein was generated using similar methods to disrupt binding within the predicted binding site through altering four residues to alanine (D677A, F680A, F681A, and E684A).
(§2) A Biacore T200 was used to evaluate binding to the NLRX1 protein. NLRX1-WT and NLRX1-Mutant were used as proteins to immobilize onto the CM5 sensor chip. NLRX1-WT was diluted in 10 mM sodium acetate buffer at pH 4.0 and immobilized onto the flow cell to a level of ˜3700 RU, using standard amine coupling chemistry. NLRX1-Mutant was diluted in 10 mM sodium acetate buffer at pH 4.0 and immobilized onto the flow cell to a level of ˜3100 RU, using standard amine coupling chemistry. 20 mM MOPS, 150 mM NaCl, 5 mM sodium acetate, 1 mM EDTA, 0.05% Tween-20, pH 8.0 buffer (Running buffer) was used as the immobilization running buffer. Based on the immobilized response values, theoretical Rmax values were calculated. The Rmax values assume 1:1 interaction mechanism. Overnight kinetics were performed for all analytes binding to the immobilized proteins. The kinetics experiments were performed in the μL/min. presence of running buffer+1% DMSO. The flow rate of all solutions was maintained at 50 Analyte concentrations were 0 μM, 2.5 μM, 5 μM 10 μM 20 μM and 40 μM.

[1] = system: MDR1a−/− model of colitis; test: MDR1a−/− model of colitis (chronic model of IBD); assay type: in vivo, mice
Description: MDR1a−/− model. Mice deficient in MDR1a spontaneously develop colitis. MDR1a−/− began receiving NX-13 treatment (oral, 20 mg/kg) at 4 weeks of age and continued treatment until 10 weeks of age. Mice were weighed and scored weekly. NX-13 was prepared within a 0.5% methylcellulose (12-15 cP) solution. Dosage used was 20 mg/kg delivered once daily. Mice were weighed on a weekly basis to update dosage formulation. Dosage was calculated based off mean body weights for each gender. Oral dosage was delivered by orogastric gavage of dosage in 0.2 mL volume. Colons were collected into RPMI/FBS buffer containing collagenase (300 U/mL) and DNase (50 U/mL) for digestion. Tissues were digested for 60 minutes under stirring at 37° C. Resultant cellular suspensions were filtered through 100 μm strainers, centrifuged (300× g, 8 min), and washed in fresh RPMI. Following filtration of the resulting single cell suspensions, immune cells were purified by Percoll gradient of cell-containing 40% Percoll overlayed onto 70% Percoll solution. After centrifugation, interphase was collected and washed to obtain enriched colonic lamina propria cell fractions. Cells were labeled with mixtures of extracellular (CD45, CD3, CD4, CD8, CD19, NK1.1, CD25, F4/80, CD11b, Gr1, CX3CR1, CD64) and intracellular (Tbet, RORγT, FOXP3, IFNγ, IL17, IL10) antibodies in a sequential live staining in 96-well plates. Data was acquired using a FACS Celesta flow cytometer with FACSDiva software. H&E stained colonic sections were prepared from portions of colons collected into 10% buffered formalin and embedded in paraffin. Slides were examined by a board-certified veterinary pathologist via an Olympus microscope and images were collected with Image-Pro software. Samples were scored (0-4) for leukocytic infiltration, epithelial erosion and mucosal thickening.

[2] = biological target: T2, mutated NLRX1 protein (D677A, F680A, F681A, E684A) (Homo sapiens, UniProt Q86UT6, D677A/E684A/F680A/F681A); test: Surface plasmon resonance binding to NLRX1-Mutant
T2 construct: made in house; host or cells: Pichia pastoris (by 'similar methods')
T2 sequence (Q86UT6 87-975 D677A/F680A/F681A/E684A): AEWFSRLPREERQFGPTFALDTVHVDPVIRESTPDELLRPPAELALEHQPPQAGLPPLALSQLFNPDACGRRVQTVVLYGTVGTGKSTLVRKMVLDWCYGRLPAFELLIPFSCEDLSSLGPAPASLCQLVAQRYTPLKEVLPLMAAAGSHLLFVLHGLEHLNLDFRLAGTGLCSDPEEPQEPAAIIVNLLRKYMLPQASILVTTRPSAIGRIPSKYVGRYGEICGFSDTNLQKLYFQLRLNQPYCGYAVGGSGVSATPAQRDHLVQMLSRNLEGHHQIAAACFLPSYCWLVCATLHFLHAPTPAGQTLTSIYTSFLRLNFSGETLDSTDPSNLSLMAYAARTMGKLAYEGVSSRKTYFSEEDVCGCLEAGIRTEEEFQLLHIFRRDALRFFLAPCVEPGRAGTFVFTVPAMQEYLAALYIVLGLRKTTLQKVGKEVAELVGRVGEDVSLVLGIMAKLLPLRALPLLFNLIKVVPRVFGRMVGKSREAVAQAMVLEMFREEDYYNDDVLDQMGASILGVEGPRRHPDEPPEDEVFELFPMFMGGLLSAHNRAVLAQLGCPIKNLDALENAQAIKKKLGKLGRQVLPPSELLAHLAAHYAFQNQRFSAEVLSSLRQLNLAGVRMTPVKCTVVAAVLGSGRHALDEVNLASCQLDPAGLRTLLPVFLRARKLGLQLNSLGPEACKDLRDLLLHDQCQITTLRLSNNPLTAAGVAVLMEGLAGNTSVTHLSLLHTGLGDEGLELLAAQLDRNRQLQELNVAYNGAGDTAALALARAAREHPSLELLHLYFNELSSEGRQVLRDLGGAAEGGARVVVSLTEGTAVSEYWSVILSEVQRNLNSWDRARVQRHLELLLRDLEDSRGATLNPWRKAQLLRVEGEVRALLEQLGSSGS
Description: as §1
as §2, with “The Rmax values assume 1:1 interaction mechanism. Overnight kinetics were performed for all analytes binding to the immobilized proteins. The kinetics experiments were performed in the μL/min. presence of running buffer+1% DMSO. The flow rate of all solutions was maintained at 50 Analyte concentrations were 0 μM, 2.5 μM, 5 μM 10 μM 20 μM and 40 μM.” left out

[3] = six weeks of treatment, flow cytometry

T1 sequence (Q86UT6 87-975): as the sequence (Q86UT6 87-975 D677A/F680A/F681A/E684A) above, with A591D, A594F, A595F, A598E counted along it

Cc1cccc(Oc2cc(Oc3cccc(C)n3)cc(Oc3cccc(C)n3)c2)n1 [NX-13, 1,3,5-tris (6-methylpyridin-2-yloxy) benzene]
binding to NLRX1 by surface plasmon resonance (in words) (Human NLRX1 (NLRX1-WT)): bind to NLRX1 | Kd (Human NLRX1 (NLRX1-WT); 1:1 binding model fitting, read-out: steady state dissociation constant KD): 30.2 µM | development of leukocyte aggregates and thickening of the mucosa ([1]; after six weeks of treatment): protected against | overall leukocytic infiltration and epithelial erosion ([1]; after six weeks of treatment): reduced | maximal observed reduction of disease activity ([1]; oral 20 mg/kg once daily, week six of treatment): 70% | colonic pathology ([1]; oral, six weeks of treatment, H&E): greatly reduced | numbers of F4/80hi macrophages [1, 3]: greatly reduced | numbers of IL-17 and IFNγ producing T cells [1, 3]: greatly reduced | proportions of Th1 cells in the colonic lamina propria [1, 3]: reduces | proportions of neutrophils in the colonic lamina propria [1, 3]: reduces | proportions of regulatory CD4+ T (Treg) cells in the colon [1, 3]: increased | binding to the mutated NLRX1 protein [2]: Loss of binding
